Source: patent publication US20210395239A1 (Hoffmann-La Roche Inc., priority 2018, published 2021)

molecular target: T1, human TLR7 (Homo sapiens, UniProt Q9NYK1); test: HEK293-Blue-hTLR-7 cells assay (SEAP reporter, R848 stimulation); assay type: cell-based; details: HEK293-Blue-hTLR7 cells, R848, 20 hrs; read-out: HEK/hTLR7 IC50
T1 construct: host or cells: HEK293 (HEK-Blue hTLR7)
T1 sequence (Q9NYK1 27-1049): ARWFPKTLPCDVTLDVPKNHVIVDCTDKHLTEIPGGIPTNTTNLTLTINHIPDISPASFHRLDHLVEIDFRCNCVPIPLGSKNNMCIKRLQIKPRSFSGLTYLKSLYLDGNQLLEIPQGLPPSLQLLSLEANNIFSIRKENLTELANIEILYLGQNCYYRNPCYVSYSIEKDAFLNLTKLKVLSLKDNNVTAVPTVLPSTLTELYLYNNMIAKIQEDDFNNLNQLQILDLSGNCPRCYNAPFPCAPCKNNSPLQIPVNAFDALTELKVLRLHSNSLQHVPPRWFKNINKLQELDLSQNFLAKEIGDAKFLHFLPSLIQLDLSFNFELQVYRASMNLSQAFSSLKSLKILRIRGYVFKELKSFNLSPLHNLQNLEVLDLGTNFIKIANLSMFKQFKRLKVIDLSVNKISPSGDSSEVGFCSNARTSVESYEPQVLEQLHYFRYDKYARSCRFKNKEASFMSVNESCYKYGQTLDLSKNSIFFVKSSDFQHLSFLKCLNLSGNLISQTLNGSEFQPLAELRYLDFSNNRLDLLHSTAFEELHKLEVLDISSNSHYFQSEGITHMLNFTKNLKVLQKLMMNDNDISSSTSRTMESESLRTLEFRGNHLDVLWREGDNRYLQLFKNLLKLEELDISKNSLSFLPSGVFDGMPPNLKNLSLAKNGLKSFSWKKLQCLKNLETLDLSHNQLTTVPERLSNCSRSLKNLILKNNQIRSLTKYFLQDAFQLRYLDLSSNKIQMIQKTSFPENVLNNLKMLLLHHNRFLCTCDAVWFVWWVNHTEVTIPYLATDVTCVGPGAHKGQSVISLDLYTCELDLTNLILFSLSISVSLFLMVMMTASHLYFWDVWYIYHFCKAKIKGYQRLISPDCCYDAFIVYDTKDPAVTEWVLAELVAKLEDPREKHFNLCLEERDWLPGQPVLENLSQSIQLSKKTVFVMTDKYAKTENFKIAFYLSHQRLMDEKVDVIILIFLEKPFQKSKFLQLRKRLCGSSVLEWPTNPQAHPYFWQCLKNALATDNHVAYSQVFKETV
In short: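 HEK293-Blue-hTLR7 cells (NF-κB/AP-1-driven SEAP reporter) were stimulated with R848 alongside serially diluted compound at 1% final DMSO for 20 h at 37 °C. Supernatant SEAP was then developed with QUANTI-Blue for 2 h at 37 °C and absorbance read at 620–655 nm; antagonism is measured as reduced reporter signal.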

| Compound | IC50 [nM] |
| --- | --- |
| CO[C@@H]1CN(c2nc(C)cc(N3CCN(C[C@H]4CN(c5ccc(C#N)c6ncccc56)C[C@@H](C)O4)CC3)n2)C[C@@H]1N [Example 72, 5-[(2S,6R)-2-[[4-[2-[(3S,4R)-3-amino-4-methoxy-pyrrolidin-1-yl]-6-methyl-pyrimidin-4-yl]piperazin-1-yl]methyl]-6-methyl-morpholin-4-yl]quinoline-8-carbonitrile] | 6 |
| Cc1cc(N2CCN(C[C@H]3CN(c4ccc(C#N)c5ncccc45)C[C@@H](C)O3)CC2)nc(N2CCC(N)C(F)(F)C2)n1 (stereo partly drawn) [Example 86, 5-[(2S,6R)-2-[[4-[2-(4-amino-3,3-difluoro-1-piperidyl)-6-methyl-pyrimidin-4-yl]piperazin-1-yl]methyl]-6-methyl-morpholin-4-yl]quinoline-8-carbonitrile] | 22 |
| CO[C@H]1CN(c2nc(C)cc(N3CCN(C[C@H]4CN(c5ccc(C#N)c6ncccc56)C[C@@H](C)O4)CC3)n2)C[C@@H]1N (single isomer, unassigned) [Example 69A] | 11 |
| C[C@@H]1CN(c2ccc(C#N)c3ncccc23)C[C@H](CN2CCN(c3ccccc3C3CNCCO3)CC2)O1 (stereo partly drawn) [Example 89, 5-[(2R,6S)-2-methyl-6-[[4-(2-morpholin-2-ylphenyl)piperazin-1-yl]methyl]morpholin-4-yl]quinoline-8-carbonitrile] | 6 |
| CO[C@H]1CN(c2nc(C)cc(N3CCN(C[C@H]4CN(c5ccc(C#N)c6ncccc56)C[C@@H](C)O4)CC3)n2)CCC1N (stereo in doubt) [Example 90, 5-[(2S,6R)-2-[[4-[2-[(3S,4S)-4-amino-3-methoxy-1-piperidyl]-6-methyl-pyrimidin-4-yl]piperazin-1-yl]methyl]-6-methyl-morpholin-4-yl]quinoline-8-carbonitrile] | 21 |
| COC1CNCC1Nc1nc(C)cc(N2CCN(C[C@H]3CN(c4ccc(C#N)c5ncccc45)C[C@@H](C)O3)CC2)n1 (stereo in doubt) [Example 70, 5-[(2S,6R)-2-[[4-[2-[[(3R,4R)-4-methoxypyrrolidin-3-yl]amino]-6-methyl-pyrimidin-4-yl]piperazin-1-yl]methyl]-6-methyl-morpholin-4-yl]quinoline-8-carbonitrile] | 70 |
| Cc1cc(N2CCN(C[C@H]3CN(c4ccc(C#N)c5ncccc45)C[C@@H](C)O3)CC2)nc(N2CC[C@@H](N)[C@@H](F)C2)n1 [Example 78, 5-[(2S,6R)-2-[[4-[2-[(3S,4R)-4-amino-3-fluoro-1-piperidyl]-6-methyl-pyrimidin-4-yl]piperazin-1-yl]methyl]-6-methyl-morpholin-4-yl]quinoline-8-carbonitrile] | 20 |
| COC1CN(c2nc(C)cc(N3CCN(C[C@H]4CN(c5ccc(C#N)c6ncccc56)C[C@@H](C)O4)CC3)n2)CC1N (single isomer, unassigned) [Example 88] | 21 |
| Cc1cc(N2CCN(C[C@H]3CN(c4ccc(C#N)c5ncccc45)C[C@@H](C)O3)CC2)nc(N[C@@H]2CNC[C@H]2F)n1 [Example 76, 5-[(2S,6R)-2-[[4-[2-[[(3R,4R)-4-fluoropyrrolidin-3-yl]amino]-6-methyl-pyrimidin-4-yl]piperazin-1-yl]methyl]-6-methyl-morpholin-4-yl]quinoline-8-carbonitrile] | 20 |
| Cc1cc(N2CCN(C[C@H]3CN(c4ccc(C#N)c5ncccc45)C[C@@H](C)O3)CC2)nc(N[C@@H]2CNC[C@@H]2F)n1 [Example 71, 5-[(2S,6R)-2-[[4-[2-[[(3R,4S)-4-fluoropyrrolidin-3-yl]amino]-6-methyl-pyrimidin-4-yl]piperazin-1-yl]methyl]-6-methyl-morpholin-4-yl]quinoline-8-carbonitrile] | 45 |
| Cc1cc(N2CCN(C[C@H]3CN(c4ccc(C#N)c5ncccc45)C[C@@H](C)O3)CC2)nc(N2C[C@H](N)C[C@H](F)C2)n1 (relative stereo) [Example 74, 5-[(2R,6S)-2-methyl-6-[[4-[6-methyl-2-[cis-3-amino-5-fluoro-1-piperidyl]pyrimidin-4-yl]piperazin-1-yl]methyl]morpholin-4-yl]quinoline-8-carbonitrile] | 24 |
| CO[C@@H]1CN(c2nc(C)cc(N3CCN(C[C@H]4CN(c5ccc(C#N)c6ncccc56)C[C@@H](C)O4)CC3)n2)C[C@H]1N (single isomer, unassigned) [Example 69B] | 7 |
| Cc1cc(N2CCN(C[C@H]3CN(c4ccc(C#N)c5ncccc45)C[C@@H](C)O3)CC2)nc(N2CC[C@@H](N)C(F)C2)n1 (stereo in doubt) [Example 82, 5-[(2S,6R)-2-[[4-[2-[(3R,4R)-4-amino-3-fluoro-1-piperidyl]-6-methyl-pyrimidin-4-yl]piperazin-1-yl]methyl]-6-methyl-morpholin-4-yl]quinoline-8-carbonitrile] | 29 |
| Cc1cc(N2CCN(C[C@H]3CN(c4ccc(C#N)c5ncccc45)C[C@@H](C)O3)CC2)nc(N2CC[C@@H](F)[C@@H](N)C2)n1 [Example 83, 5-[(2R,6S)-2-methyl-6-[[4-[6-methyl-2-[(3S,4R)-3-amino-4-fluoro-1-piperidyl]-pyrimidin-4-yl]piperazin-1-yl]methyl]morpholin-4-yl]quinoline-8-carbonitrile] | 32 |
| Cc1cc(N2CCN(C[C@H]3CN(c4ccc(C#N)c5ncccc45)C[C@@H](C)O3)CC2)nc(N2CC(N)C2)n1 [Example 87, 5-[(2S,6R)-2-[[4-[2-(3-aminoazetidin-1-yl)-6-methyl-pyrimidin-4-yl]piperazin-1-yl]methyl]-6-methyl-morpholin-4-yl]quinoline-8-carbonitrile] | 8 |
| Cc1cc(N2CCN(C[C@H]3CN(c4ccc(C#N)c5ncccc45)C[C@@H](C)O3)CC2)nc(N2C[C@H](N)C[C@@H](F)C2)n1 (relative stereo) [Example 75, 5-[(2R,6S)-2-methyl-6-[[4-[6-methyl-2-[trans-3-amino-5-fluoro-1-piperidyl]pyrimidin-4-yl]piperazin-1-yl]methyl]morpholin-4-yl]quinoline-8-carbonitrile] | 25 |
| Cc1cc(N2CCN(C[C@H]3CN(c4ccc(C#N)c5ncccc45)C[C@@H](C)O3)CC2)nc(N2C[C@@H](N)[C@H](F)C2)n1 [Example 79, 5-[(2S,6R)-2-[[4-[2-[(3R,4R)-3-amino-4-fluoro-pyrrolidin-1-yl]-6-methyl-pyrimidin-4-yl]piperazin-1-yl]methyl]-6-methyl-morpholin-4-yl]quinoline-8-carbonitrile] | 21 |
| Cc1cc(N2CCN(C[C@H]3CN(c4ccc(C#N)c5ncccc45)C[C@@H](C)O3)CC2)nc(N2CC[C@@H](F)C(N)C2)n1 (single isomer, unassigned) [Example 84] | 10 |
| Cc1cc(N2CCN(C[C@H]3CN(c4ccc(C#N)c5ncccc45)C[C@@H](C)O3)CC2)nc(N2C[C@@H](N)C[C@@H](F)C2)n1 [Example 77, 5-[(2S,6R)-2-[[4-[2-[(3S,5R)-3-amino-5-fluoro-1-piperidyl]-6-methyl-pyrimidin-4-yl]piperazin-1-yl]methyl]-6-methyl-morpholin-4-yl]quinoline-8-carbonitrile] | 26 |
| Cc1cc(N2CCN(C[C@H]3CN(c4ccc(C#N)c5ncccc45)C[C@@H](C)O3)CC2)nc(NC2CNCC2F)n1 (stereo in doubt) [Example 73, 5-[(2S,6R)-2-[[4-[2-[[(3S,4R)-4-fluoropyrrolidin-3-yl]amino]-6-methyl-pyrimidin-4-yl]piperazin-1-yl]methyl]-6-methyl-morpholin-4-yl]quinoline-8-carbonitrile] | 49 |
| Cc1cc(N2CCN(C[C@H]3CN(c4ccc(C#N)c5ncccc45)C[C@@H](C)O3)CC2)nc(N2CC(N)CC(F)(F)C2)n1 (stereo partly drawn) [Example 80, 5-[(2S,6R)-2-[[4-[2-(5-amino-3,3-difluoro-1-piperidyl)-6-methyl-pyrimidin-4-yl]piperazin-1-yl]methyl]-6-methyl-morpholin-4-yl]quinoline-8-carbonitrile] | 107 |
| Cc1cc(N2CCN(C[C@H]3CN(c4ccc(C#N)c5ncccc45)C[C@@H](C)O3)CC2)nc(N2CCNC(C(C)(C)O)C2)n1 (stereo partly drawn) [Example 81, 5-[(2S,6R)-2-[[4-[2-[3-(1-hydroxy-1-methyl-ethyl)piperazin-1-yl]-6-methyl-pyrimidin-4-yl]piperazin-1-yl]methyl]-6-methyl-morpholin-4-yl]quinoline-8-carbonitrile] | 22 |
